Measured values as given in ChEMBL document CHEMBL5360666, “Inhibition Profiles of Some Novel Sulfonamide-Incorporated α-Aminophosphonates on Human Carbonic Anhydrases” (ACS Med Chem Lett, 2023).

Legend:
[1] = target: Carbonic anhydrase 9 (Homo sapiens, UniProt Q16790); assay: Inhibition of human carbonic anhydrase 9 assessed as inhibition constant incubated for 1 hr prior to testing by phenol red based stopped-flow CO2 hydration assay
[2] = target: Carbonic anhydrase 12 (Homo sapiens, UniProt O43570); assay: Inhibition of human carbonic anhydrase 12 assessed as inhibition constant incubated for 1 hr prior to testing by phenol red based stopped-flow CO2 hydration assay
[3] = target: Carbonic anhydrase 1 (Homo sapiens, UniProt P00915); assay: Inhibition of human carbonic anhydrase 1 assessed as inhibition constant incubated for 1 hr prior to testing by phenol red based stopped-flow CO2 hydration assay
Carbonic anhydrase 1, sequence (P00915 whole entry): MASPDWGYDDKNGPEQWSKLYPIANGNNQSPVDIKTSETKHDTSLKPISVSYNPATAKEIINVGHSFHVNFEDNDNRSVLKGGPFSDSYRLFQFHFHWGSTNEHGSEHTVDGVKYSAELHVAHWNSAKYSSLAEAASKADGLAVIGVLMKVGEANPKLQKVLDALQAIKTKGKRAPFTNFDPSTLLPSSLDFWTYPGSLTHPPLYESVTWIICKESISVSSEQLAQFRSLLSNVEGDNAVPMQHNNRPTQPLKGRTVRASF

Carbonic anhydrase 12, sequence (O43570 whole entry): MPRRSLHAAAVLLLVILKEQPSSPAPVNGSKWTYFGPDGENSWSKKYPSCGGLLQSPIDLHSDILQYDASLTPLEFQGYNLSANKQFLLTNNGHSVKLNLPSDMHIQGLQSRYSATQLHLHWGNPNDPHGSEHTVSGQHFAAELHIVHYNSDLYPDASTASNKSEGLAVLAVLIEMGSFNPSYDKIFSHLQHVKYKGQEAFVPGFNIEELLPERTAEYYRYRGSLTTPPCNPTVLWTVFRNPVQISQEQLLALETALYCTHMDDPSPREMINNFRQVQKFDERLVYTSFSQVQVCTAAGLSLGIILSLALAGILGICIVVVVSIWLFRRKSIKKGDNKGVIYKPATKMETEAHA

Row | Structure (SMILES) | Ki [1] | Ki [2] | Ki [3]
1 | CCOP(=O)(OCC)C(Nc1ccc(S(N)(=O)=O)cc1)c1c(Br)cccc1OC (stereo not drawn) | 346 nM |  | 
2 | CCOP(=O)(OCC)C(Nc1ccc(S(N)(=O)=O)cc1)c1cccc(Br)c1 (stereo not drawn) | 61.3 nM |  | 
3 | CCOP(=O)(OCC)C(Nc1ccc(S(N)(=O)=O)cc1)c1ccc(Cl)cc1 (stereo not drawn) | 142 nM |  | 
4 | CCOP(=O)(OCC)C(Nc1ccc(S(N)(=O)=O)cc1)c1ccccc1[N+](=O)[O-] (stereo not drawn) | 293 nM |  | 
5 | CCOP(=O)(OCC)C(Nc1ccc(S(N)(=O)=O)cc1)c1ccccc1F (stereo not drawn) | 26.7 nM |  | 
6 | CCOP(=O)(OCC)C(Nc1ccc(S(N)(=O)=O)cc1)c1cccc(F)c1 (stereo not drawn) | 39.1 nM |  | 
7 | CCOP(=O)(OCC)C(Nc1ccc(S(N)(=O)=O)cc1)c1ccc(Br)cc1 (stereo not drawn) | 154 nM |  | 
8 | CCOP(=O)(OCC)C(Nc1ccc(S(N)(=O)=O)cc1)c1ccc(F)cc1 (stereo not drawn) | 91.6 nM |  | 
9 | CCOP(=O)(OCC)C(Nc1ccc(S(N)(=O)=O)cc1)c1ccc(C)cc1 (stereo not drawn) | 147 nM |  | 
10 | CCOP(=O)(OCC)C(Nc1ccc(S(N)(=O)=O)cc1)c1ccc(SC)cc1 (stereo not drawn) | 80.2 nM |  | 
11 | CCOP(=O)(OCC)C(Nc1ccc(S(N)(=O)=O)cc1)c1cc(OC)ccc1OC (stereo not drawn) | 470 nM |  | 

Second part, the molecule after the results:

Row | Ki [1] | Ki [2] | Ki [3] | Structure (SMILES)
12 | 118 nM |  |  | CCOP(=O)(OCC)C(Nc1ccc(S(N)(=O)=O)cc1)c1ccc(OC)c(OC)c1 (stereo not drawn)
13 | 883 nM | 11.2 nM | > 50000 nM | COc1ccc(CNc2ccc(S(N)(=O)=O)cc2)cc1
14 | 225 nM |  |  | CCOP(=O)(OCC)C(Nc1ccc(S(N)(=O)=O)cc1)c1ccc(-c2ccccc2)cc1 (stereo not drawn)
15 | 140 nM |  |  | CCOP(=O)(OCC)C(Nc1ccc(S(N)(=O)=O)cc1)c1ccc(OC)cc1 (stereo not drawn)
16 | 249 nM |  |  | CCOP(=O)(OCC)C(Nc1ccc(S(N)(=O)=O)cc1)c1cc(OC)c(OC)cc1OC (stereo not drawn)
